Tests used:
Type in all cases: in vivo
[1] = test system: giant foxtail (Setaria faberi); test: Test G Post-Emergence Protocol; details: Setaria faberi, post-emergence, 312 h, read-out: Foxtail, Giant damage rating; for pest or weed control at 15.625 g/ha: 15.625 g ai/ha, evaluated after 13 days (100=total damage to plant; 0=no damage to plant); for pest or weed control at 62.5 g/ha: 62.5 g ai/ha; for pest or weed control at 62.5 g/ha / pest or weed control at 250 g/ha: evaluated after 13 days, 100=total damage to plant, 0=no damage to plant; for pest or weed control at 250 g/ha: 250 g ai/ha
Method in brief: (§1)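 Post-emergence herbicidal damage, scored visually 0–100 at 13 days. Application at 15.625, 62.5 or 250 g/ha onto 8-day-old plants grown under glasshouse control.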

[2] = test system: redroot pigweed (Amaranthus retroflexus); test: Test G Post-Emergence Protocol; details: Amaranthus retroflexus, post-emergence, 312 h, read-out: Pigweed, Redroot damage rating; for pest or weed control at 15.625 g/ha: 15.625 g ai/ha, evaluated after 13 days (100=total damage to plant; 0=no damage to plant); for pest or weed control at 62.5 g/ha: 62.5 g ai/ha; for pest or weed control at 62.5 g/ha / pest or weed control at 250 g/ha: evaluated after 13 days, 100=total damage to plant, 0=no damage to plant; for pest or weed control at 250 g/ha: 250 g ai/ha
Method in brief: as §1

[3] = test system: barnyardgrass (Echinochloa crus-galli); test: Test G Post-Emergence Protocol; details: Echinochloa crus-galli, post-emergence, 312 h, read-out: Barnyardgrass damage rating; for pest or weed control at 15.625 g/ha: 15.625 g ai/ha, evaluated after 13 days (100=total damage to plant; 0=no damage to plant); for pest or weed control at 62.5 g/ha: 62.5 g ai/ha; for pest or weed control at 62.5 g/ha / pest or weed control at 250 g/ha: evaluated after 13 days, 100=total damage to plant, 0=no damage to plant; for pest or weed control at 250 g/ha: 250 g ai/ha
Method in brief: as §1

[4] = test system: velvetleaf (Abutilon theophrasti); test: Test G Post-Emergence Protocol; details: Abutilon theophrasti, post-emergence, 312 h, read-out: Velvetleaf damage rating; for pest or weed control at 15.625 g/ha: 15.625 g ai/ha, evaluated after 13 days (100=total damage to plant; 0=no damage to plant); for pest or weed control at 62.5 g/ha: 62.5 g ai/ha; for pest or weed control at 62.5 g/ha / pest or weed control at 250 g/ha: evaluated after 13 days, 100=total damage to plant, 0=no damage to plant; for pest or weed control at 250 g/ha: 250 g ai/ha
Method in brief: as §1

corn (Zea mays) [5] = test: Test G Post-Emergence Protocol; details: Zea mays, post-emergence, 312 h, read-out: Corn damage rating; for plant injury at 15.625 g/ha: 15.625 g ai/ha, evaluated after 13 days (100=total damage to plant; 0=no damage to plant); for plant injury at 62.5 g/ha: 62.5 g ai/ha; for plant injury at 62.5 g/ha / plant injury at 250 g/ha: evaluated after 13 days, 100=total damage to plant, 0=no damage to plant; for plant injury at 250 g/ha: 250 g ai/ha
Method in brief: as §1

[6] = test system: ivy-leaved morning glory (Ipomoea hederacea); test: Test G Post-Emergence Protocol; details: Ipomoea, post-emergence, 312 h, read-out: Morningglory, Ivy-leaved damage rating; for pest or weed control at 15.625 g/ha: 15.625 g ai/ha, evaluated after 13 days (100=total damage to plant; 0=no damage to plant); for pest or weed control at 62.5 g/ha: 62.5 g ai/ha; for pest or weed control at 62.5 g/ha / pest or weed control at 250 g/ha: evaluated after 13 days, 100=total damage to plant, 0=no damage to plant; for pest or weed control at 250 g/ha: 250 g ai/ha
Method in brief: as §1

[7] = test system: giant foxtail (Setaria faberi); test: Test G Pre-Emergence Protocol; details: Setaria faberi, pre-emergence, 312 h, evaluated after 13 days; for pest or weed control at 15.625 g/ha: 15.625 g ai/ha; for pest or weed control at 15.625 g/ha / pest or weed control at 250 g/ha: read-out: Foxtail, Giant damage rating (100=total damage to plant; 0=no damage to plant); for pest or weed control at 62.5 g/ha: 62.5 g ai/ha, 100=total damage to plant, 0=no damage to plant, read-out: Foxtail, Giant damage rating; for pest or weed control at 250 g/ha: 250 g ai/ha
Method in brief: (§2)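 Under a 24/16° C day/night regime with 14 h light and 65% humidity, sown pots were sprayed after one day with compound (15.625, 62.5 or 250 g/ha; 50:50 acetone/water, 0.5% Tween 20). Damage was assessed visually 13 days later, 0 to 100.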

[8] = test system: redroot pigweed (Amaranthus retroflexus); test: Test G Pre-Emergence Protocol; details: Amaranthus retroflexus, pre-emergence, 312 h, evaluated after 13 days; for pest or weed control at 15.625 g/ha: 15.625 g ai/ha; for pest or weed control at 15.625 g/ha / pest or weed control at 250 g/ha: read-out: Pigweed, Redroot damage rating (100=total damage to plant; 0=no damage to plant); for pest or weed control at 62.5 g/ha: 62.5 g ai/ha, 100=total damage to plant, 0=no damage to plant, read-out: Pigweed, Redroot damage rating; for pest or weed control at 250 g/ha: 250 g ai/ha
Method in brief: as §2

[9] = test system: barnyardgrass (Echinochloa crus-galli); test: Test G Pre-Emergence Protocol; details: Echinochloa crus-galli, pre-emergence, 312 h, evaluated after 13 days; for pest or weed control at 15.625 g/ha: 15.625 g ai/ha; for pest or weed control at 15.625 g/ha / pest or weed control at 250 g/ha: read-out: Barnyardgrass damage rating (100=total damage to plant; 0=no damage to plant); for pest or weed control at 62.5 g/ha: 62.5 g ai/ha, 100=total damage to plant, 0=no damage to plant, read-out: Barnyardgrass damage rating; for pest or weed control at 250 g/ha: 250 g ai/ha
Method in brief: as §2

[10] = test system: velvetleaf (Abutilon theophrasti); test: Test G Pre-Emergence Protocol; details: Abutilon theophrasti, pre-emergence, 312 h, evaluated after 13 days; for pest or weed control at 15.625 g/ha: 15.625 g ai/ha; for pest or weed control at 15.625 g/ha / pest or weed control at 250 g/ha: read-out: Velvetleaf damage rating (100=total damage to plant; 0=no damage to plant); for pest or weed control at 62.5 g/ha: 62.5 g ai/ha, 100=total damage to plant, 0=no damage to plant, read-out: Velvetleaf damage rating; for pest or weed control at 250 g/ha: 250 g ai/ha
Method in brief: as §2

corn (Zea mays) [11] = test: Test G Pre-Emergence Protocol; details: Zea mays, pre-emergence, 312 h, evaluated after 13 days; for plant injury at 15.625 g/ha: 15.625 g ai/ha; for plant injury at 15.625 g/ha / plant injury at 250 g/ha: read-out: Corn damage rating (100=total damage to plant; 0=no damage to plant); for plant injury at 62.5 g/ha: 62.5 g ai/ha, 100=total damage to plant, 0=no damage to plant, read-out: Corn damage rating; for plant injury at 250 g/ha: 250 g ai/ha
Method in brief: as §2

[12] = test system: ivy-leaved morning glory (Ipomoea hederacea); test: Test G Pre-Emergence Protocol; details: Ipomoea, pre-emergence, 312 h, evaluated after 13 days; for pest or weed control at 15.625 g/ha: 15.625 g ai/ha; for pest or weed control at 15.625 g/ha / pest or weed control at 250 g/ha: read-out: Morningglory, Ivy-leaved damage rating (100=total damage to plant; 0=no damage to plant); for pest or weed control at 62.5 g/ha: 62.5 g ai/ha, 100=total damage to plant, 0=no damage to plant, read-out: Morningglory, Ivy-leaved damage rating; for pest or weed control at 250 g/ha: 250 g ai/ha
Method in brief: as §2

SMILES	pest or weed control at 15.625 g/ha [1] [%]	pest or weed control at 62.5 g/ha [1] [%]	pest or weed control at 250 g/ha [1] [%]	pest or weed control at 15.625 g/ha [2] [%]	pest or weed control at 62.5 g/ha [2] [%]	pest or weed control at 250 g/ha [2] [%]	pest or weed control at 15.625 g/ha [3] [%]	pest or weed control at 62.5 g/ha [3] [%]	pest or weed control at 250 g/ha [3] [%]	pest or weed control at 15.625 g/ha [4] [%]	pest or weed control at 62.5 g/ha [4] [%]	pest or weed control at 250 g/ha [4] [%]	plant injury at 15.625 g/ha (corn (Zea mays) [5]) [%]	plant injury at 62.5 g/ha (corn (Zea mays) [5]) [%]	plant injury at 250 g/ha (corn (Zea mays) [5]) [%]	pest or weed control at 15.625 g/ha [6] [%]	pest or weed control at 62.5 g/ha [6] [%]	pest or weed control at 250 g/ha [6] [%]	pest or weed control at 15.625 g/ha [7] [%]	pest or weed control at 62.5 g/ha [7] [%]	further results
CN1C[C@@H](c2cccc(C(F)(F)F)c2)[C@H](C(=O)Nc2cccc(F)n2)C1=O [Compound 1817]	0	0	0	0	0	0	0	0	0	0	0	0	0	0	0	0	0	0	0	0	pest or weed control at 250 g/ha [7]: 10%; pest or weed control at 15.625 g/ha [8]: 0%; pest or weed control at 62.5 g/ha [8]: 0%; pest or weed control at 250 g/ha [8]: 0%; pest or weed control at 15.625 g/ha [9]: 0%; pest or weed control at 62.5 g/ha [9]: 0%; pest or weed control at 250 g/ha [9]: 0%; pest or weed control at 15.625 g/ha [10]: 0%; pest or weed control at 62.5 g/ha [10]: 0%; pest or weed control at 250 g/ha [10]: 0%; plant injury at 15.625 g/ha (corn (Zea mays) [11]): 0%; plant injury at 62.5 g/ha (corn (Zea mays) [11]): 0%; plant injury at 250 g/ha (corn (Zea mays) [11]): 0%; pest or weed control at 15.625 g/ha [12]: 0%; pest or weed control at 62.5 g/ha [12]: 0%; pest or weed control at 250 g/ha [12]: 0%
CN1C[C@@H](c2cccc(C(F)(F)F)c2)[C@H](C(=O)Nc2cccnc2F)C1=O [Compound 1823]	0	0	0	0	0	0	0	0	0	0	0	0	0	0	0	0	0	0	0	0	pest or weed control at 250 g/ha [7]: 0%; pest or weed control at 15.625 g/ha [8]: 0%; pest or weed control at 62.5 g/ha [8]: 0%; pest or weed control at 250 g/ha [8]: 0%; pest or weed control at 15.625 g/ha [9]: 0%; pest or weed control at 62.5 g/ha [9]: 0%; pest or weed control at 250 g/ha [9]: 0%; pest or weed control at 15.625 g/ha [10]: 0%; pest or weed control at 62.5 g/ha [10]: 0%; pest or weed control at 250 g/ha [10]: 0%; plant injury at 15.625 g/ha (corn (Zea mays) [11]): 0%; plant injury at 62.5 g/ha (corn (Zea mays) [11]): 0%; plant injury at 250 g/ha (corn (Zea mays) [11]): 0%; pest or weed control at 15.625 g/ha [12]: 0%; pest or weed control at 62.5 g/ha [12]: 0%; pest or weed control at 250 g/ha [12]: 0%
